This passage reports IC50 results from patent US10173991B2, “Sulfone amide linked benzothiazole inhibitors of endothelial lipase” (BRISTOL-MYERS SQUIBB COMPANY, priority 2014, dated 2019).

Endothelial lipase (EL), sequence (Q9Y5X9 21-500): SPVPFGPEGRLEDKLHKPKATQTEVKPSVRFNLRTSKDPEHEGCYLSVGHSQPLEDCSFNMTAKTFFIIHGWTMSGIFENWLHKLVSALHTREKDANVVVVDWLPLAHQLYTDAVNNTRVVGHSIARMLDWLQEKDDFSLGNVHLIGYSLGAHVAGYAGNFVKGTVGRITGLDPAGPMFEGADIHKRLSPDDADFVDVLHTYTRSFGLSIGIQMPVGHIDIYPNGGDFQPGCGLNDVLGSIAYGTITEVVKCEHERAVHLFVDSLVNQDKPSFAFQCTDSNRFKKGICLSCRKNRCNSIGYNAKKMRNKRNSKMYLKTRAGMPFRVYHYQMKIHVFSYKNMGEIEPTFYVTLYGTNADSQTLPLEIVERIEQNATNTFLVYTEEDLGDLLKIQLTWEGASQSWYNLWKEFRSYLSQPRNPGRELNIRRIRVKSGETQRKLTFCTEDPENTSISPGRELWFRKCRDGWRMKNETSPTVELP

This experiment concerns the target Endothelial lipase (EL) (Homo sapiens (Human), UniProt Q9Y5X9). Kind of experiment: Endothelial lipase (EL) enzymatic assay with fluorescent substrate A10070 in DMPG vesicles. The format is biochemical. A digest of the protocol: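 Substrate A10070 sits in sonicated DMPG vesicles at 0.11 mole fraction. Lipase and compound preincubated 30 min, 37° C, in HEPES pH 8.0 buffer with CaCl2.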
`COCCS(=O)(=O)C(C(=O)NCC(=O)NC1CC1)c1nc2cc(-c3ccc(NC(C)=O)cc3)ccc2s1` (stereo not shown) [Example 106, N-[(cyclopropyl-carbamoyl)methyl]-2-[5-(4-acetamidophenyl)-1,3-benzothiazol-2-yl]-2-(2-methoxyethane-sulfonyl)acetamide]: the IC50 amounted to 30 nM.
To `COCCS(=O)(=O)C(C(=O)NCC(=O)NC1CC1)c1nc2cc(Cl)c(-c3ccnn3C)cc2s1` (stereo not shown) [Example 107] belongs 34 nM; to `COCCS(=O)(=O)C(C(=O)NCC(=O)NC1CC1)c1nc2cc(Cl)c(-c3ccn(C)c(=O)c3)cc2s1` (stereo not shown) [Example 108, 2-[5-chloro-6-(1-methyl-2-oxo-1,2-dihydropyridin-4-yl)-1,3-benzothiazol-2-yl]-N-[(cyclopropyl-carbamoyl)methyl]-2-(2-methoxyethane-sulfonyl)acetamide], 51 nM; to `CC(C)(O)Cn1cc(-c2ccc3nc(C(C(=O)NCC(=O)NC4CC4)S(C)(=O)=O)sc3c2)cn1` (stereo not shown) [Example 109, N-[(cyclopropyl-carbamoyl)methyl]-2-{6-[1-(2-hydroxy-2-methylpropyl)-1H-pyrazol-4-yl]-1,3-benzothiazol-2-yl}-2-methanesulfonyl-acetamide], 14 nM.
Then `COCCS(=O)(=O)C(C(=O)NCC(=O)NC1CC1)c1nc2ccc(-c3cnn(CC(C)(C)O)c3)cc2s1` (stereo not shown) [Example 110, N-[(cyclopropyl-carbamoyl)methyl]-2-{6-[1-(2-hydroxy-2-methylpropyl)-1H-pyrazol-4-yl]-1,3-enzothiazol-2-yl}-2-(2-methoxyethane-sulfonyl) acetamide], with 31 nM; and `CC(=O)Nc1cccc(-c2ccc3nc(C(C(=O)NCC(=O)NC4CC4)S(C)(=O)=O)sc3c2)c1` (stereo not shown) [Example 111, N-[(cyclopropyl-carbamoyl)methyl]-2-[6-(3-acetamidophenyl)-1,3-benzothiazol-2-yl]-2-methanesulfonyl-acetamide], with 23 nM.
In the case of `COCCS(=O)(=O)C(C(=O)NCC(=O)NC1CC1)c1nc2cc(Cl)c(-c3cncnc3)cc2s1` (stereo not shown) [Example 112, 2-[5-chloro-6-(pyrimidin-5-yl)-1,3-benzothiazol-2-yl]-N-[(cyclopropyl-carbamoyl)methyl]-2-(2-methoxyethane-sulfonyl)acetamide], the IC50 amounted to 97 nM.
Then `CC(=O)Nc1ccc(-c2cc3nc(C(C(=O)NCC(=O)NC4CC4)S(C)(=O)=O)sc3cc2F)cc1` (stereo not shown) [Example 113, N-[(cyclopropyl-carbamoyl)methyl]-2-[5-(4-acetamidophenyl)-6-fluoro-1,3-benzothiazol-2-yl]-2-methanesulfonyl-acetamide], with 9 nM; and `COC(=O)Nc1ccc(-c2cc3nc(C(C(=O)NCC(=O)NC4CC4)S(C)(=O)=O)sc3cc2F)cc1` (stereo not shown) [Example 114, methyl N-{4-[2-({[(cyclopropyl-carbamoyl)methyl]caramoyl} (methanesulfonyl)methyl)-6-fluoro-1,3-benzothiazol-5-yl]phenyl} carbamate], with 4 nM.
Then `CC(=O)Nc1cccc(-c2cc3nc(C(C(=O)NCC(=O)NC4CC4)S(C)(=O)=O)sc3cc2F)c1` (stereo not shown) [Example 115, N-[(cyclopropyl-carbamoyl)methyl]-2-[5-(3-acetamidophenyl)-6-fluoro-1,3-benzothiazol-2-yl]-2-methanesulfonyl-acetamide], with 12 nM; and `CC(=O)Nc1cccc(-c2cc3sc(C(C(=O)NCC(=O)NC4CC4)S(C)(=O)=O)nc3cc2F)c1` (stereo not shown) [Example 116, N-[(cyclopropyl-carbamoyl)methyl]-2-[6-(3-acetamidophenyl)-5-fluoro-1,3-benzothiazol-2-yl]-2-methanesulfonyl-acetamide], with 17 nM.
To `COC(=O)Nc1cccc(-c2cc3sc(C(C(=O)NCC(=O)NC4CC4)S(C)(=O)=O)nc3cc2F)c1` (stereo not shown) [Example 117, methyl N-{3-[2-({[(cyclopropyl-carbamoyl)methyl]carbamoyl} (methanesulfonyl)methyl)-5-fluoro-1,3-benzothiazol-6-yl]phenyl} carbamate] belongs 4 nM; to `COC(=O)Nc1ccc(-c2cc3sc(C(C(=O)NCC(=O)NC4CC4)S(C)(=O)=O)nc3cc2F)cc1F` (stereo not shown) [Example 118, methyl N-{4-[2-({[(cyclopropyl-carbamoyl)methyl]carbamoyl} (methanesulfonyl)methyl)-5-fluoro-1,3-benzothiazol-6-yl]-2-fluorophenyl} carbamate], 11 nM; to `COC(=O)Nc1ccc(-c2cc3sc(C(C(=O)NCC(=O)NC4CC4)S(C)(=O)=O)nc3cc2F)cc1` (stereo not shown) [Example 120, methyl N-{4-[2-({[(cyclopropyl-carbamoyl)methyl]carbamoyl} (methanesulfonyl)methyl)-5-fluoro-1,3-benzothiazol-6-yl]phenyl} carbamate], 4 nM.
With `CS(=O)(=O)C(C(=O)NCC(=O)NC1CC1)c1nc2c(Cl)cc(-c3ccc(F)nc3)cc2s1` (stereo not shown) [Example 121, 2-[4-chloro-6-(6-fluoropyridin-3-yl)-1,3-benzothiazol-2-yl]-N-[(cyclopropyl-carbamoyl)methyl]-2-methanesulfonyl-acetamide], the 50% inhibitory concentration (IC50) turned out to be 14 nM.
Then `COC(=O)Nc1ccc(-c2cc3nc(C(C(=O)NCC(=O)NC4CC4)S(C)(=O)=O)sc3cc2F)cc1F` (stereo not shown) [Example 122, methyl N-{4-[2-({[(cyclopropyl-carbamoyl)methyl]carbamoyl} (methanesulfonyl)methyl)-6-fluoro-1,3-benzothiazol-5-yl]-2-fluorophenyl} carbamate], with 7 nM; and `COC(=O)Nc1cccc(-c2cc3nc(C(C(=O)NCC(=O)NC4CC4)S(C)(=O)=O)sc3cc2F)c1` (stereo not shown) [Example 123, methyl N-{3-[2-({[(cyclopropyl-carbamoyl)methyl]carbamoyl} (methanesulfonyl)methyl)-6-fluoro-1,3-benzothiazol-5-yl]phenyl} carbamate], with 5 nM; and `COC(=O)Nc1ccc(-c2cc(Cl)c3nc(C(C(=O)NCC(=O)NC4CC4)S(C)(=O)=O)sc3c2)cc1F` (stereo not shown) [Example 124, methyl N-{4-[4-chloro-2-({[(cyclopropyl-carbamoyl)methyl]carbamoyl} (methanesulfonyl)methyl)-1,3-benzothiazol-6-yl]-2-fluorophenyl} carbamate], with 2 nM.
To `COC(=O)Nc1ccc(-c2cc(Cl)c3nc(C(C(=O)NCC(=O)NC4CC4)S(C)(=O)=O)sc3c2)cc1` (stereo not shown) [Example 125, methyl N-{4-[4-chloro-2-({[(cyclopropyl-carbamoyl)methyl]carbamoyl} (methanesulfonyl)methyl)-1,3-benzothiazol-6-yl]phenyl} carbamate] belongs 2 nM; to `Cc1ncc(-c2ccc3sc(C(C(=O)NCC(=O)NC4CC4)S(C)(=O)=O)nc3c2F)cn1` (stereo not shown) [Example 126, N-[(cyclopropyl-carbamoyl)methyl]-2-[4-fluoro-5-(2-methylpyrimidin-5-yl)-1,3-benzothiazol-2-yl]-2-methanesulfonyl-acetamide], 137 nM; to `CS(=O)(=O)C(C(=O)NCC(=O)NC1CC1)c1nc2c(F)c(-c3ccc(NC(=O)OCc4ccccc4)cc3)ccc2s1` (stereo not shown) [Example 127, benzyl N-{4-[2-({[(cyclopropyl-carbamoyl)methyl]carbamoyl} (methanesulfonyl)methyl)-4-fluoro-1,3-benzothiazol-5-yl]phenyl} carbamate], 3 nM.
`COCCS(=O)(=O)C(C(=O)NCC(=O)NC1CC1)c1nc2cc(-c3ccc(-c4nnn[nH]4)cc3)c(F)cc2s1` (stereo not shown) [Example 128, N-[(cyclopropyl-carbamoyl)methyl]-2-{6-fluoro-5-[4-(1H-1,2,3,4-tetrazol-5-yl)phenyl]-1,3-benzothiazol-2-yl}-2-(2-methoxyethane-sulfonyl) acetamide] yielded an IC50 of 97 nM.
To `COCCS(=O)(=O)C(C(=O)NCC(=O)NC1CC1)c1nc2cc(-c3cccc(-c4cc[nH]n4)c3)c(F)cc2s1` (stereo not shown) [Example 129, N-[(cyclopropyl-carbamoyl)methyl]-2-{6-fluoro-5-[3-(1H-pyrazol-3-yl)phenyl]-1,3-benzothiazol-2-yl}-2-(2-methoxyethane-sulfonyl) acetamide] belongs 12 nM.
The compound `COCCS(=O)(=O)C(C(=O)NCC(=O)NC1CC1)c1nc2cc(-c3ccc(-c4ccn[nH]4)cc3)c(F)cc2s1` (stereo not shown) [Example 130, N-[(cyclopropyl-carbamoyl)methyl]-2-{6-fluoro-5-[4-(1H-pyrazol-5-yl)phenyl]-1,3-benzothiazol-2-yl}-2-(2-methoxyethane-sulfonyl) acetamide] registered an IC50 of 18 nM.
The compound `COCCS(=O)(=O)C(C(=O)NCC(=O)NC1CC1)c1nc2cc(-c3cnc(-n4cccn4)nc3)c(F)cc2s1` (stereo not shown) [Example 131, N-[(cyclopropyl-carbamoyl)methyl]-2-{6-fluoro-5-[2-(1H-pyrazol-1-yl)pyrimidin-5-yl]-1,3-benzothiazol-2-yl}-2-(2-methoxyethane-sulfonyl) acetamide] came in with an IC50 of 131 nM.
To `COCCS(=O)(=O)C(C(=O)NCC(=O)NC1CC1)c1nc2cc(-c3ccc(-n4cnnn4)cc3)c(F)cc2s1` (stereo not shown) [Example 132, N-[(cyclopropyl-carbamoyl)methyl]-2-{6-fluoro-5-[4-(1H-1,2,3,4-tetrazol-1-yl)phenyl]-1,3-benzothiazol-2-yl}-2-(2-methoxyethane-sulfonyl) acetamide] belongs 52 nM; to `COCCS(=O)(=O)C(C(=O)NCC(=O)NC1CC1)c1nc2cc(-c3cccc(-c4nnn[nH]4)c3)c(F)cc2s1` (stereo not shown) [Example 133, N-[(cyclopropyl-carbamoyl)methyl]-2-{6-fluoro-5-[3-(1H-1,2,3,4-tetrazol-5-yl)phenyl]-1,3-benzothiazol-2-yl}-2-(2-methoxyethane-sulfonyl) acetamide], 145 nM; to `COCCS(=O)(=O)C(C(=O)NCC(=O)NC1CC1)c1nc2cc(-c3cccc(C(=O)OC(C)(C)C)c3)ccc2s1` (stereo not shown) [Example 134, tert-butyl 3-[2-({[(cyclopropyl-carbamoyl)methyl]carbamoyl}(2-methoxyethane-sulfonyl)methyl)-1,3-benzothiazol-5-yl]benzoate], 2 nM.
